The target in the test is T1, truncated chicken MR (GAL4-DBD-MR-LBD) (Gallus gallus, UniProt C1KB84).
T1 sequence (C1KB84 729-986): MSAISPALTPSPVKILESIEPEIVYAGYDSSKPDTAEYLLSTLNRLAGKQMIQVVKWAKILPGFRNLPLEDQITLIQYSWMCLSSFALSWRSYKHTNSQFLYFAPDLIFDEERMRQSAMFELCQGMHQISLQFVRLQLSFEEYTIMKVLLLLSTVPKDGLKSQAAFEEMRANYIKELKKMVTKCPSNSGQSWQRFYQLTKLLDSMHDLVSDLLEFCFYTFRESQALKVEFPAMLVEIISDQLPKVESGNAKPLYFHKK
The test can be described thus: luciferase reporter transactivation in HEK293, GAL4-DBD fusion. It is filed as cell-based.

Compound `C[C@]12CCC(=O)C=C1CC[C@@H]1[C@@H]2[C@@H](O)C[C@]2(C=O)[C@@H](C(=O)CO)CC[C@@H]12` [aldosterone] had an EC50 of 0.13 nM. For `C[C@]12CCC(=O)C=C1CC[C@@H]1[C@@H]2[C@@H](O)C[C@@]2(C)[C@H]1CC[C@]2(O)C(=O)CO` [cortisol] the value was 0.69 nM.

The values are drawn from article doi:10.1101/151233v4 (biorxiv, 2018).
